# Measured values as given in PubChem BioAssay (NCI).
#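 All cell lines were grown in 96-well plates and treated with compound for 48 hours. The concentration for 50% growth inhibition is given as GI50. The concentration for full growth arrest is given as TGI.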
# Columns and labels:
# Assay in all cases: inhibition of tumour cell growth, NCI panel, 48 h
# [1] = system: RPMI-8226 leukemia
# [2] = system: NCI-H522 lung
# [3] = system: MOLT-4 leukemia
# [4] = system: 786-0 renal
# [5] = system: SK-MEL-28 melanoma
# [6] = system: HL-60(TB) leukemia
# [7] = system: NCI/ADR-RES ovarian
# [8] = system: CAKI-1 renal
# [9] = system: BT-549 breast
# [10] = system: NCI-H460 lung
# [11] = system: SF-268 CNS
# [12] = system: TK-10 renal
# [13] = system: A549 NSCLC
# [14] = system: SK-MEL-5 melanoma
# [15] = system: COLO 205 colon
# [16] = system: KM12 colon
# [17] = system: NCI-H226 lung
# [18] = system: HOP-92 NSCLC
# [19] = system: HOP-62 NSCLC
# [20] = system: EKVX NSCLC
# [21] = system: OVCAR-8 ovarian
# [22] = system: SNB-19 CNS
# [23] = system: M14 melanoma
# [24] = system: NCI-H23 lung
# [25] = system: MDA-MB-435
# [26] = system: IGROV1 ovarian
# [27] = system: DU-145 prostate
# [28] = system: OVCAR-5 ovarian
# [29] = system: OVCAR-3 ovarian
# [30] = system: SF-295 CNS
# [31] = system: SF-539 CNS
# [32] = system: U251 CNS
# [33] = system: HS 578T breast
# [34] = system: LOX IMVI melanoma
# [35] = system: HCT-116 colon
# [36] = system: SR leukemia
# [37] = system: CCRF-CEM leukemia
# [38] = system: MCF7 breast
# [39] = system: UO-31 renal
# [40] = system: UACC-62 melanoma
# [41] = system: SW-620 colon
# [42] = system: MALME-3M melanoma
# [43] = system: OVCAR-4 ovarian
# [44] = system: RXF 393 renal
# [45] = system: PC-3 prostate
# [46] = system: A498 renal
# [47] = system: SNB-75 CNS
# [48] = system: HT29 colon
# [49] = system: T-47D breast
# [50] = system: HCC-2998 colon
# [51] = system: SK-OV-3 ovarian
# [52] = system: SK-MEL-2 melanoma
# [53] = system: UACC-257 melanoma
# [54] = system: ACHN renal
# [55] = system: SN12C renal
# [56] = system: MDA-MB-231 breast
# [57] = system: HCT-15 colon
smiles,measurement,setting,value
Cc1ccc2cc3c(N)c4c(C)ccc(C)c4nc3nc2c1,GI50,[1],2.02 µM
same,TGI,[1],5.27 µM
same,GI50,[2],3.74 µM
same,TGI,[2],20.7 µM
same,GI50,[3],3.49 µM
same,TGI,[3],21.7 µM
same,GI50,[4],6.72 µM
same,TGI,[4],20.5 µM
same,GI50,[5],13.7 µM
same,TGI,[5],28.5 µM
same,GI50,[6],18.7 µM
same,TGI,[6],40.8 µM
same,GI50,[7],2.95 µM
same,TGI,[7],16.7 µM
same,GI50,[8],10.2 µM
same,TGI,[8],22 µM
same,GI50,[9],14.8 µM
same,TGI,[9],29.7 µM
same,GI50,[10],1.84 µM
same,TGI,[10],3.77 µM
same,GI50,[11],11.8 µM
same,TGI,[11],25.8 µM
same,GI50,[12],12.2 µM
same,TGI,[12],25.5 µM
same,GI50,[13],1.85 µM
same,TGI,[13],3.44 µM
same,GI50,[14],8.14 µM
same,TGI,[14],21 µM
same,GI50,[15],5.77 µM
same,TGI,[15],20 µM
same,GI50,[16],2.12 µM
same,TGI,[16],16.9 µM
same,GI50,[17],13.1 µM
same,TGI,[17],29.5 µM
same,GI50,[18],1.87 µM
same,TGI,[18],16.5 µM
same,GI50,[19],9.79 µM
same,TGI,[19],25.5 µM
same,GI50,[20],8.04 µM
same,TGI,[20],21.4 µM
same,GI50,[21],5.64 µM
same,TGI,[21],23.5 µM
same,GI50,[22],7.02 µM
same,TGI,[22],23.8 µM
same,GI50,[23],12.4 µM
same,TGI,[23],26.7 µM
same,GI50,[24],11.6 µM
same,TGI,[24],28.6 µM
same,GI50,[25],10.9 µM
same,TGI,[25],23.4 µM
same,GI50,[26],6.73 µM
same,TGI,[26],22.3 µM
same,GI50,[27],5.82 µM
same,TGI,[27],18.6 µM
same,GI50,[28],1.99 µM
same,TGI,[28],5.05 µM
same,GI50,[29],6.12 µM
same,TGI,[29],21.1 µM
same,GI50,[30],1.66 µM
same,TGI,[30],3.05 µM
same,GI50,[31],7.97 µM
same,TGI,[31],23.1 µM
same,GI50,[32],4.58 µM
same,TGI,[32],18.1 µM
same,GI50,[33],12.8 µM
same,TGI,[33],34.5 µM
same,GI50,[34],1.65 µM
same,TGI,[34],3.4 µM
same,GI50,[35],1.68 µM
same,TGI,[35],3.27 µM
same,GI50,[36],2.3 µM
same,TGI,[36],7.33 µM
same,GI50,[37],4.04 µM
same,TGI,[37],36.8 µM
same,GI50,[38],1.44 µM
same,TGI,[38],2.98 µM
same,GI50,[39],3.6 µM
same,TGI,[39],19.6 µM
same,GI50,[40],7.72 µM
same,TGI,[40],22 µM
same,GI50,[41],2.81 µM
same,TGI,[41],15.3 µM
same,GI50,[42],17.7 µM
same,TGI,[42],36.1 µM
same,GI50,[43],3.79 µM
same,TGI,[43],14.8 µM
same,GI50,[44],1.8 µM
same,TGI,[44],3.62 µM
same,GI50,[45],6.89 µM
same,TGI,[45],21.6 µM
same,GI50,[46],11.9 µM
same,TGI,[46],25.1 µM
same,GI50,[47],5.97 µM
same,TGI,[47],20.7 µM
same,GI50,[48],2.89 µM
same,TGI,[48],12.9 µM
same,GI50,[49],2.14 µM
same,TGI,[49],6.1 µM
same,GI50,[50],4.26 µM
same,TGI,[50],14.8 µM
same,GI50,[51],11.4 µM
same,TGI,[51],24 µM
same,GI50,[52],14 µM
same,TGI,[52],29.3 µM
same,GI50,[53],14.2 µM
same,TGI,[53],28.6 µM
same,GI50,[54],2.68 µM
same,TGI,[54],13.2 µM
same,GI50,[55],6.75 µM
same,TGI,[55],21 µM
same,GI50,[56],3.17 µM
same,TGI,[56],20.4 µM
same,GI50,[57],1.33 µM
same,TGI,[57],10.3 µM
